The values that follow are results of earlier work, collected in patent US20250341511A1, “MASS-TAG LABELING OF THE CELLULAR SECRETOME” (The Governing Council of the University of Toronto, priority 2022, published 2025).

The conditions of the data set: relative to required assay concentration.

As to `C[Te]CCCOC(=O)NCCNC(=O)Cn1ccnc1[N+](=O)[O-]` [Telox], the “metabolic LD50” value was “close to the required assay concentration”.
